In patent US10111847B2, “Compounds and methods for modulating vascular injury” (The Regents of the University of California, priority 2012, dated 2018):

Tests used:
MCP-1 = MCP-1 expression in TNF-α stimulated VSMCs by qRT-PCR; assay type: cell-based, human; conditions: 10, 100 nM; TNF-α 10 ng/ml 18 hours; P<0.05
Protocol: FIGS. 15A-15D. Representative images of Calcein-AM labeled U937 monocytes adhered to human sv-VSMCs pretreated with vehicle (A, B) or 7S-Maresin-1 (C) or 7S-Maresin-1 and pertussis toxin (D) for 30 min, followed by TNFα at 10 ng/ml for 4 hr (B, C, D). (E) Quantitative analysis of U937 adhesion assay in human sv-VSMCs and (F) human sv-ECs (1 ng/ml TNFα used for EC cells). P≤0.05, One-way ANOVA with Dunnett's post hoc test. *: P≤0.05 compared to control, unpaired t-test. †: P≤0.05 compared to TNFα, unpaired t-test. ‡: P≤0.05 compared to TNFα+7S-Maresin-1, unpaired t-test. (G) VSMCs were pretreated with 7S-Maresin-1 or vehicle for 30 min, followed by TNFα at 10 ng/ml for 4 hr. Whole cell lysates were blotted for VCAM-1 (Pierce Inc.) and beta-actin (Sigma). VCAM-1 and beta-actin western blotting image is representative of three independent experiments. Bar graph represents net quantitative densitometry analysis. N=3. P=0.06, One-way ANOVA with Kruskal Wallis nonparametric test. P=0.07 of TNFα, compared to control, Mann Whitney test. P=0.20 of 7S-Maresin-1 at 10 nm and 100 nm compared to TNFα, Mann Whitney test. Error bars: SEM. […] Expression of MCP-1 was measured by qRT-PCR, and normalized to unstimulated cells (n=3, results are mean±SEM, P<0.05 for Mar-1 (10 and 100 nM) vs TNF alone, unpaired t-test).

p65 subunit = assay: Nuclear translocation of p65 subunit in sv-VSMCs (immunofluorescence); assay type: cell-based, human; conditions: 100 nm, 30 min; TNFα 10 ng/ml 2 hrs
Protocol: Immunofluorescence for p65 (RelA): 15000 VSMCs or 30000 ECs were seeded on a 8-well chamber slide. Cells received 30 min of Maresin-1 pretreatment, followed by TNF-α for 2 hr. Cells were fixed in 2% paraformaldehyde, followed by permeabilization with ice-cold acetone (10 min) and 1% Triton X-100 (20 min). Cells were incubated overnight in a humidified chamber with anti-p65 antibody (Santa Cruz Biotechnology Inc.) followed by Alexa-fluor 488 tagged secondary antibody (Life Technologies) and were visualized under a fluorescent microscope.
FIGS. 16A-16D. VSMCs were grown in chamber slides and treated with vehicle or 100 nm of 7S or 7R-Maresin-1 with/without 10 ng/ml pertussis toxin for 30 min, followed by TNFα (10 ng/ml) for 2 hrs. Cells were fixed and subsequently stained with anti-p65 (Santa Cruz Biotechnology) and secondary antibodies (Alexa-488). (A-D) Representative images of Ctrl (A), TNFα (B), 7R-Maresin-1+TNFα (C) and 7R-Maresin-1+pertussis toxin (10 ng/ml)+TNFα. (E) Mean fluorescence of nucleus and cytoplasm were quantified from all groups and the net result of the ratio of nucleus over cytoplasmic mean fluorescence is depicted in the bar graph, as a measure of relative p65 nuclear translocation. (N>=3). […]

[1] = tested on: human saphenous vein vascular smooth muscle (sv-VSMC) cells; assay: TNFα induced superoxide production (DHE) in sv-VSMC (Maresin-1); assay type: cell-based; conditions: 100 nM; TNFα 10 ng/ml 4 hr
Protocol: Mar-1. Cells were grown in 8-well chamber slides at a density of 15000 cells/well for 2 days for VSMCs and 50000 cells/well for 2 days for ECs in a 96 well plate. After treatments, cells were incubated with dihydroethidium (DHE, 3 μM, Invitrogen) or CellRox (Invitrogen Inc, 5 μM for ECs) in media for 30 minutes at 37° C. in a humidified chamber with 5% CO2 protected from light. DAPI nuclear counter staining was utilized for DHE staining. For DHE, fluorescence was detected with TRITC filter allowing the detection of the DHE emission wavelength of 590-620 nm. Fluorescence quantitation was performed using ImageJ analysis software. For ECs, fluorescence measurements were taken using a Spectramax M2e plate reader.
FIGS. 13A-13D. Representative merged images of DHE staining, counterstained with DAPI. (A), Negative control. (B), TNFα at 10 ng/ml for 4 hr. […] (E) Quantitative comparison of DHE staining intensity in the nucleus of human saphenous vein vascular smooth muscle (sv-VSMC) cells, treated with TNFα and 7S and 7R-Maresin-1 with and without pertussis toxin. (F) Quantitative comparison of cellular ROS production by CellRox (Life technologies, Carlsbad, Calif.) in human saphenous vein endothelial (EC) cells treated with TNFα (1 ng/nil) and 7S-Maresin-1 (N>=3). […]

IKKα/β subunit [2] = assay: TNFα induced phosphorylation of IKKα/β in sv-ECs, western blot; assay type: cell-based, human; conditions: 100 nm, 30 min; TNFα 1 ng/ml 15 min
Protocol: (§1) Mar-1. VSMCs and ECs were lysed in buffer (20 mM Tris-Hcl, 137 mM NaCl, 10% Glycerol, 1% NP-40) with protease and phosphatase inhibitors (Halt inhibitor capsules, Pierce, Inc) by sonication on ice. The lysates were instantly snap frozen in liquid nitrogen and thawed back later for western blotting. After centrifugation (15,000 g for 20 minutes), the whole cell extract (supernatant) was collected and was heated at 100° C. in Laemlli buffer for 6 minutes. Lysates were run on Mini-Protean TGX gels
(§2) (Biorad) and transferred on PVDF membranes which were probed with appropriate primary and secondary antibodies and visualized for quantitation using q-dot nanocrystals (Life Technologies, Inc).
(§3) Cells were pretreated with 100 nm of 7S/7R-Maresin-1 for 30 min, followed by TNFα (10 ng/ml for VSMC and 1 ng/ml for EC) for 15 min. Whole cell lysates were collected and probed for pan and phospho IKK (Cell Signaling Inc.).
(§4) FIG. 18. IKK-phospho and total IKK western blotting image is representative of three independent experiments. Bar graph represents net quantitative densitometry analysis. N=3. P≤0.05, One-way ANOVA with Dunnett's post hoc test. *: P≤0.05 compared to control, unpaired t-test. †: P≤0.05 compared to TNFα, unpaired t-test. Error bars: SEM.

IKKα/β subunit [3] = assay: TNFα induced phosphorylation of IKKα/β in sv-VSMCs, western blot; assay type: cell-based, human; conditions: 100 nm, 30 min; TNFα 10 ng/ml 15 min
Protocol: as §1, §2, §3, §4

carotid artery = assay: Mouse carotid artery ligation model, neointima formation; assay type: in vivo, FVB Mice; conditions: intraperitoneal 100 ng/dose on days 0, 1, 3, 5 and 7; sacrificed at 14 days
Protocol: To examine the potential therapeutic effects of systemic administration of pro-resolving mediators in acute vascular injury, a standardized mouse model of carotid ligation was employed. FVB Mice (N=23) were treated with intraperitoneal administration of RvD2 (100 ng/dose), 7R Mar-1 (100 ng/dose) or vehicle on days 0 (4 hrs prior to carotid injury), 1, 3, 5 and 7. Total dose received was 500 ng/mouse. Unilateral carotid ligation was performed as a standardized model of vascular injury, induced by low shear. Animals were then sacrificed at 14 days and perfusion-fixed vessels explanted for analysis. Following elastin staining, neointima (NI) and medial (M) compartments were measured by a blinded observer, and ratios (area and average wall thickness) calculated. Analysis was performed at mid CCA level (2.5 mm from ligature).
FIG. 22. (A)-(C), depict a cross-section of a carotid artery at mid CCA level (2.5 mm from ligature) from carotid ligation mouse model administered vehicle (A), RvD2 (B), or 7R-Mar-1 (C). (D)-(E) depict NUM ratio of the cross-section of the carotid artery at mid CCA level from carotid ligation mouse model administered vehicle, RvD2, or 7R-Mar-1. […]

Row | SMILES | MCP-1 expression by TNF-α stimulated VSMCs (MCP-1) | nuclear translocation of p65 subunit in human sv-VSMCs (p65 subunit) | TNF-α-induced superoxide production in VSMC [1] | TNFα induced phosphorylation of IKKα/β subunit in human sv-ECs (IKKα/β subunit [2]) | TNFα induced phosphorylation of IKKα/β subunit in human sv-VSMCs (IKKα/β subunit [3]) | neointima formation following carotid artery ligation (carotid artery)
1 | CC/C=C\C/C=C\CC(O)\C=C/C=C/C=C/C(O)C/C=C\CCC(=O)O (stereo not drawn) [Mar-1, maresin 1 (7, 14-dihydroxy DHA)] | reduced | – | – | – | – | –
2 | CC/C=C\C/C=C\C[C@@H](O)\C=C/C=C/C=C/[C@@H](O)C/C=C\CCC(=O)O [7R-Maresin-1, 7R,14S-dihydroxydocosa-4Z,8E,10E,12Z,16Z,19Z-hexaenoic acid] | – | Inhibit | Reduce | Reduce | Reduce | Reduces
